Data on 19 molecules can be found in ChEMBL document CHEMBL2203052, “Synthesis and antimycobacterial activity of calpinactam derivatives” (2012).

Converted amounts (≈) assume the structure as drawn.

This assay deals with Mycolicibacterium smegmatis. Nature of the assay: Antimycobacterial activity against Mycobacterium smegmatis by liquid microdilution method. The assay is classed as functional.
Regarding `CC[C@H](C)[C@@H](NC(=O)[C@H](CCC(=O)O)NC(=O)[C@H](Cc1cnc[nH]1)NC(=O)[C@H](CC(C)C)NC(=O)[C@H](N)Cc1ccccc1)C(=O)N[C@H]1CCCCNC1=O`, the MIC was > 50 µg/mL. Next, `CC[C@H](C)[C@H](NC(=O)[C@@H](CCC(=O)O)NC(=O)[C@H](Cc1cnc[nH]1)NC(=O)[C@H](CC(C)C)NC(=O)[C@H](N)Cc1ccccc1)C(=O)N[C@H]1CCCCNC1=O`: > 50 µg/mL; `CC[C@H](C)[C@@H](NC(=O)[C@@H](CCC(=O)O)NC(=O)[C@H](Cc1cnc[nH]1)NC(=O)[C@H](CC(C)C)NC(=O)[C@H](N)Cc1ccccc1)C(=O)N[C@@H]1CCCCNC1=O`: > 50 µg/mL; `CC[C@H](C)[C@@H](NC(=O)[C@@H](CCC(=O)O)NC(=O)[C@H](Cc1cnc[nH]1)NC(=O)[C@H](CC(C)C)NC(=O)[C@H](N)Cc1ccccc1)C(=O)O`: > 50 µg/mL.

For the molecule `CC[C@H](C)[C@@H](NC(=O)[C@@H](CCC(=O)O)NC(=O)[C@H](Cc1cnc[nH]1)NC(=O)[C@H](CC(C)C)NC(=O)[C@H](N)Cc1ccccc1)C(=O)N[C@@H](CCCCN)C(=O)O`, the MIC was > 50 µg/mL. For `CC[C@H](C)[C@@H](NC(=O)[C@@H](CCC(=O)O)NC(=O)[C@H](Cc1cnc[nH]1)NC(=O)[C@H](CC(C)C)NC(=O)[C@H](N)Cc1ccccc1)C(=O)N[C@H]1CCCNC1=O`, the minimal inhibitory concentration (MIC) is > 50 µg/mL. With `CC[C@H](C)[C@@H](NC(=O)[C@@H](CCC(=O)O)NC(=O)[C@H](Cc1cnc[nH]1)NC(=O)[C@H](CC(C)C)NC(=O)[C@H](N)Cc1ccccc1)C(=O)NC1CCCCCC1`, the MIC is > 50 µg/mL. As for `CC[C@H](C)[C@@H](NC(=O)[C@@H](CCC(=O)O)NC(=O)[C@H](Cc1cnc[nH]1)NC(=O)[C@@H](N)CC(C)C)C(=O)N[C@H]1CCCCNC1=O`, the MIC was > 50 µg/mL.

With `CC[C@H](C)[C@@H](NC(=O)[C@@H](CCC(=O)O)NC(=O)[C@H](Cc1cnc[nH]1)NC(=O)[C@H](CC(C)C)NC(=O)[C@@H](Cc1ccccc1)NC(C)=O)C(=O)N[C@H]1CCCCNC1=O`, the minimal inhibitory concentration (MIC) is > 50 µg/mL. Turning to `CC[C@H](C)[C@@H](NC(=O)[C@@H](CCC(=O)O)NC(=O)[C@@H](Cc1cnc[nH]1)NC(=O)[C@H](CC(C)C)NC(=O)[C@H](N)Cc1ccccc1)C(=O)N[C@H]1CCCCNC1=O`, the MIC is > 50 µg/mL. Regarding `CC[C@H](C)[C@@H](NC(=O)[C@@H](CCC(=O)O)NC(=O)[C@H](Cc1cnc[nH]1)NC(=O)[C@H](CC(C)C)NC(=O)[C@@H](N)Cc1ccccc1)C(=O)N[C@H]1CCCCNC1=O`, the minimal inhibitory concentration (MIC) was > 50 µg/mL. Regarding `CC[C@H](C)[C@@H](NC(=O)[C@@H](CCC(=O)O)NC(=O)[C@H](Cc1cnc[nH]1)NC(=O)[C@@H](CC(C)C)NC(=O)[C@H](N)Cc1ccccc1)C(=O)N[C@H]1CCCCNC1=O`, the MIC was > 50 µg/mL. Then `CC[C@H](C)[C@@H](NC(=O)[C@@H](CCC(=O)O)NC(=O)[C@H](Cc1cnc[nH]1)NC(=O)[C@H](CC(C)C)NC(=O)[C@H](N)Cc1ccccc1)C(=O)N[C@@H](C)C(=O)O`, with > 50 µg/mL. In the case of `CC(C)C[C@H](NC(=O)[C@H](N)Cc1ccccc1)C(=O)N[C@@H](Cc1cnc[nH]1)C(=O)N[C@H](CCC(=O)O)C(=O)N[C@H](C)C(=O)N[C@H]1CCCCNC1=O`, the MIC is > 50 µg/mL. In the case of `CC[C@H](C)[C@@H](NC(=O)[C@@H](C)NC(=O)[C@H](Cc1cnc[nH]1)NC(=O)[C@H](CC(C)C)NC(=O)[C@H](N)Cc1ccccc1)C(=O)N[C@H]1CCCCNC1=O`, the minimal inhibitory concentration (MIC) came to 6.25 µg/mL (≈ 8.8 µM). `CC[C@H](C)[C@@H](NC(=O)[C@@H](CCC(=O)O)NC(=O)[C@H](Cc1cnc[nH]1)NC(=O)[C@H](C)NC(=O)[C@H](N)Cc1ccccc1)C(=O)N[C@H]1CCCCNC1=O`: the MIC is > 50 µg/mL. `CC[C@H](C)[C@@H](NC(=O)[C@@H](CCC(=O)O)NC(=O)[C@H](C)NC(=O)[C@H](CC(C)C)NC(=O)[C@H](N)Cc1ccccc1)C(=O)N[C@H]1CCCCNC1=O`: the MIC was > 50 µg/mL. In the case of `CC[C@H](C)[C@@H](NC(=O)[C@@H](CCC(=O)O)NC(=O)[C@H](Cc1cnc[nH]1)NC(=O)[C@H](CC(C)C)NC(=O)[C@@H](C)N)C(=O)N[C@H]1CCCCNC1=O`, the minimum inhibitory concentration (MIC) was > 50 µg/mL. The molecule `CC[C@H](C)[C@@H](NC(=O)[C@@H](CCC(=O)O)NC(=O)[C@H](Cc1cnc[nH]1)NC(=O)[C@H](CC(C)C)NC(=O)[C@H](N)Cc1ccccc1)C(=O)N[C@H]1CCCCNC1=O` [CALPINACTAM] registered a minimum inhibitory concentration (MIC) of 0.78 µg/mL (≈ 1.02 µM).
